Molecular target: T1, E17R (E17-PR), green proteorhodopsin (Exiguobacterium sp. S17, UniProt S3FWZ0)
T1 sequence (S3FWZ0 1-248): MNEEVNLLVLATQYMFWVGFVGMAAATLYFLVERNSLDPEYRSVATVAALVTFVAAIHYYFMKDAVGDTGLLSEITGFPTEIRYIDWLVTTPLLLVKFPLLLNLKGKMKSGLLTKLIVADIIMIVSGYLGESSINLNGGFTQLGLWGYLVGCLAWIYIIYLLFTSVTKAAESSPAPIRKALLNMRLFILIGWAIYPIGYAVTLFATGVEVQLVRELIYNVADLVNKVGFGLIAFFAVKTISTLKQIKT
Assay: UV-vis absorption of purified holoprotein; hydroxylamine bleaching to retinal oxime
Assay type: binding
Conditions: covalent; Schiff base with lysine; […] HEPES, […] NaCl, […] DDM; room temperature

## CC1=C(/C=C/C(C)=C/C=C/C(C)=C/C=O)C(C)(C)CCC1 [retinal]
  UV-vis absorption of purified holoprotein; hydroxylamine bleaching to retinal ox: Expression and purification of E17R yielded after purification and retinal addition a protein with λmax
